Structures are written as SMILES.

In experiment [1] the target is T1, ZAP-70 (Homo sapiens, UniProt P43403).
T1 construct: endogenous in cells; host or cells: cell lysate
T1 sequence (P43403 1-619): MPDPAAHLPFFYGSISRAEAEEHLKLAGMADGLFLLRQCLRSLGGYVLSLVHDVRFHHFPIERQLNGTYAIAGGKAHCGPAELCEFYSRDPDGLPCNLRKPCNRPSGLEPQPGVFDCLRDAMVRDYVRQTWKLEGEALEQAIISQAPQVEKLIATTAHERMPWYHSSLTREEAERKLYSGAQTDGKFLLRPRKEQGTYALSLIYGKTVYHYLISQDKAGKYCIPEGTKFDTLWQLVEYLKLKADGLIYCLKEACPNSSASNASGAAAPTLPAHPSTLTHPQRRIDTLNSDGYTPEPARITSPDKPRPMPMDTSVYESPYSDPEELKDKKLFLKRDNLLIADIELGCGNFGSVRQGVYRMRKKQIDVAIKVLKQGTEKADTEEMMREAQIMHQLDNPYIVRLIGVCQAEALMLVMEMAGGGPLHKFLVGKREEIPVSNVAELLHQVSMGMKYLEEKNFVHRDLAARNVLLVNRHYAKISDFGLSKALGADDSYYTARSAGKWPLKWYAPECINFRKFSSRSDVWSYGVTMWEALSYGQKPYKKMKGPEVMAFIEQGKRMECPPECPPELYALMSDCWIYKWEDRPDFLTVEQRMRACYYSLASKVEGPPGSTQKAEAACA
Put plainly: ZAP-70 kinobeads assay. The note with it: cell lysate, dot blot detection. Format: binding. The procedure: The compounds of the present invention as described in the previous examples can be tested in the ZAP-70 kinobeads assay as described (EP-A 1862802 and WO-A 2007/137867). Briefly, test compounds (at various concentrations) and the affinity matrix with the immobilized aminopyrido-pyrimidine ligand 24 are added to cell lysate aliquots and allowed to bind to the proteins in the lysate sample. After the incubation time the beads with captured proteins are separated from the lysate. Bound proteins are then eluted and the presence ZAP-70 is detected and quantified using a specific antibody in a dot blot procedure and the Odyssey infrared detection system.

For experiment [2], the system named is Jurkat cells. Put plainly: Calcium release assay (Fluo-4, flow cytometry, anti-CD3 stimulation). It is filed as cell-based. The note with it: Homo sapiens; intracellular Ca2+ release in Jurkat cells after anti-CD3 activation. The procedure:
Compounds of the present invention were tested in a Calcium release assay as described below.
The development of fluorescent probes makes it possible to measure the concentration of intracellular free Calcium ions in single living cells. Cells are first loaded with a cell-permeable Ca^2+-sensitive dye, then the test compound is added. Finally, cells are activated through the T cell receptor with an anti-CD3 antibody shortly before data acquisition on the flow cytometer. The release of Ca^2+ is measured as a function of time after cell stimulation. This protocol describes the flow cytometry method using the Fluo-3 and Fluo-4 dyes (Minta et al., 1989, J. Biol. Chem. 264(14):8171-8178) to measure the intracellular Ca^2+ concentration in Jurkat cells (see also June et al., 1997, Measurement of intracellular calcium ions by flow cytometry. In: Current Protocols in Cytometry (1997) Unit 9.8.1-9.8.19, John Wiley & Sons, Inc.).
1) Prepare a work plan indicating the number of samples to be analyzed including controls. 2) Cell harvest: Centrifuge 50 to 100 ml of a Jurkat cell culture for 5 minutes at 1100 rpm. Discard the supernatant, pool the resuspended cell pellets in a single 50 ml Falcon tube, and fill up to 50 ml with PBS-CaCl2 (without FCS). Centrifuge again sample again. 3) Resuspend cell pellet with PBS-CaCl2 (without FCS) to achieve a concentration not lower than 10×10^6 cells/ml. Prepare an adequate dilution to evaluate the cell concentration and count the cells. 4) Separate the volume of cells needed to be loaded (for example […] for 20 samples) in a 50 ml Falcon tube. Fill up with PBS-CaCl2 to 900 μl for 107 cells. 5) Prepare in the dark a 1:1 mix of FLUO-4 (1 mM)+Pluronic F-127 (20%). 5 μl of Fluo-4 are needed per 107 cells. 6) Prepare a 1/10 dilution of this mix with PBS-CaCl2 (in the dark; for example 5 μl Fluo-4+5 μl F-127 completed to 100 μl). 7) Add the dye solution to the cells. […] 8) Incubate the sample for 30 minutes in a cell incubator (37° C., 5% CO2). Mix from time to time. 9) During this time prepare the adequate test compound dilution in PBS-CaCl2 (with 10% FCS). The solution should be 10 times more concentrated than the desired final concentration. Vortex each dilution. Prepare also the antibody dilutions: anti-CD3 (1/200) and GAM (1/25). 10) Label FACS tubes and distribute in the corresponding tube 30 μl of the compound dilution or only buffer for the control tubes. 11) After 30 minutes of incubation wash the cells twice in PBS-CaCl2 (with 10% FCS). During the washing steps make sure that the flow cytometer is already “ON” in order to warm the laser. 12) Resuspend the cell pellet in PBS-CaCl2 (with 10% FCS) at a concentration of 1.5×10^6 cells/ml. 13) Distribute 300 μl of cell suspension into the FACS tubes and mix gently. The compound incubation is starting. Keep samples at room temperature in the dark. 14) Open the settings of the cytometer. It is advised to have a template ready which is used for all measurements. Settings of the machine should also be the same from one experiment to the other which permits to evaluate the reproducibility of the cell preparation. 15) In Setup modus control your cell preparation on the cytometer. Cells should fit in the pre-defined gates. 16) During the compound incubation time, check also that cells are responding to the anti-CD3 activation as expected. Set a timer at 8 sec. Add 6 μl of anti-CD3 dilution (0.2 μg/ml final) and mix gently. Add 1 μl of GAM dilution (0.75 μg/ml final) and mix gently. Incubate the samples in water bath at 37° C. while starting timer. After 8 seconds of incubation, acquire data at medium speed for 200 seconds. A clear increase of fluorescence should appear after 1 minute. 17) Make sure that the cells rest and equilibrate at room temperature 15 minutes before FACS data acquisition 18) Data acquisition: Samples to be compared should be measured consecutively. 19) For a better reproducibility, make sure that data for the loaded cells are acquired within 2 hours. […]

A word on the IC50: it is the concentration that inhibits the measured activity by half. As to `COc1cc(Nc2ncc(F)c(Nc3ccc(C)c(C)c3NS(N)(=O)=O)n2)cc(OC)c1OC` [Example 31, N-(6-(5-fluoro-2-(3,4,5-trimethoxyphenylamino)pyrimidin-4-ylamino)-2,3-dimethylphenyl)sulfamide], the IC50 in experiment [1] and in experiment [2] was under 1 µM each time.
Turning to `COc1cc(Nc2ncc(F)c(Nc3cccc(NS(N)(=O)=O)c3)n2)cc(OC)c1OC` [Example 1, N-(3-(5-fluoro-2-(3,4,5-trimethoxyphenylamino)pyrimidin-4-ylamino)phenyl)sulfamide], the IC50 was under 50 µM in experiment [1] and under 1 µM in experiment [2].
With `COc1cccc(Nc2nc(Nc3cc(OC)c(OC)c(OC)c3)ncc2F)c1NS(N)(=O)=O` [Example 32, N-(2-(5-fluoro-2-(3,4,5-trimethoxyphenylamino)pyrimidin-4-ylamino)-6-methoxyphenyl)sulfamide], the 50% inhibitory concentration (IC50) in experiment [1] and in experiment [2] was under 0.1 µM in each case.
`COc1cc(Nc2ncc(F)c(Nc3ccc(C)cc3NS(N)(=O)=O)n2)cc(OC)c1OC` [Example 34, N-(2-(5-Fluoro-2-(3,4,5-trimethoxyphenylamino)pyrimidin-4-ylamino)-5-methylphenyl)sulfamide]: the IC50 in experiment [1] and in experiment [2] was under 1 µM in each case.
With `COc1ccc(Nc2ncc(F)c(Nc3ccccc3NS(N)(=O)=O)n2)cc1` [Example 28, N-(2-(5-fluoro-2-(4-methoxyphenylamino)pyrimidin-4-ylamino)phenyl)sulfamide], the IC50 in experiment [1] was under 50 µM; in experiment [2], under 1 µM.
Turning to `CN(C)c1ccc(Nc2ncc(Br)c(Nc3ccccc3NS(N)(=O)=O)n2)cc1` [Example 25], the 50% inhibitory concentration (IC50) in experiment [1] was under 1 µM; in experiment [2] it was under 0.1 µM.
The matching figures for `COc1cc(Nc2ncc(C)c(Nc3ccccc3NS(N)(=O)=O)n2)cc(OC)c1OC` [Example 24, N-(2-(5-methyl-2-(3,4,5-trimethoxyphenylamino)pyrimidin-4-ylamino)phenyl)sulfamide]: under 1 µM and under 0.1 µM.
The matching figures for `COc1cc(Nc2ncc(F)c(Nc3ccccc3NS(=O)(=O)N(C)C)n2)cc(OC)c1OC` [Example 11, N-(2-(5-fluoro-2-(3,4,5-trimethoxyphenylamino)pyrimidin-4-ylamino)phenyl)-N′,N′-dimethylsulfamide]: under 1 µM and under 1 µM.
The matching figures for `CCNS(=O)(=O)Nc1cccc(Nc2nc(Nc3cc(OC)c(OC)c(OC)c3)ncc2F)c1` [Example 7, N-(3-(5-fluoro-2-(3,4,5-trimethoxyphenylamino)pyrimidin-4-ylamino)phenyl)-N′-ethylsulfamide]: under 50 µM and under 1 µM.
